Measured values published in PubChem BioAssay (NCI).
Where “and” joins values, the source holds several entries; their conditions need not be identical. Identical values can stand only once.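 Interpolation was linear, between the two tested concentrations surrounding the appropriate level; five concentrations were tested over 48 hours in 96-well plates. At the GI50, growth is halved. TGI is the concentration that stops growth completely.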 Where a SMILES comes first, the peptide text is derived from it. The star is where a group is joined. Boc = CC(C)(C)OC(=O)*; Bn = c1ccc(C*)cc1

How the values were obtained:
Assay in all cases: NCI anticancer screen, dose series, 48 h
[1] = test system: BT-549 breast
[2] = test system: COLO 205 colon
[3] = test system: HCT-15 colon
[4] = test system: MALME-3M melanoma
[5] = test system: MDA-MB-435
[6] = test system: MDA-N
[7] = test system: NCI-H23 lung
[8] = test system: NCI-H522 lung
[9] = test system: RXF 393 renal
[10] = test system: SF-295 CNS
[11] = test system: SN12C renal
[12] = test system: SNB-75 CNS
[13] = test system: UO-31 renal

Structure (SMILES) | TGI [1] | TGI [2] | TGI [3] [µM] | TGI [4] | TGI [5] | TGI [6] | TGI [7] | TGI [8] [µM] | TGI [9] | TGI [10] | TGI [11] | TGI [12] | TGI [13] [µM] | GI50 [2] | GI50 [5] | GI50 [9] | GI50 [10] | GI50 [11] | GI50 [12]
CCCCCCCCCCOCCOCCOCCOCCCCC(O)CCCCCCCC1=C[C@H](C)OC1=O (stereo not given in full) | 16.1 µM | 34.5 µM | 23.9 | 46.3 µM | 28.2 µM | 24.3 µM | 16.6 µM | 21.1 | 23.5 µM | 21.5 µM | 29.9 µM | 24.7 µM | 18.3 | – | – | – | – | – | –
COC(=O)/N=[N+](\[O-])C(c1ccccc1)c1ccccc1 | > 100 µM | > 100 µM | > 100 | > 100 µM | > 100 µM | > 100 µM | > 100 µM | > 100 | > 100 µM | – | > 100 µM | > 100 µM | 70.9 | – | – | – | – | – | –
CN(C)c1ccc(/C=C(\NC(=O)c2ccccc2)C(=O)Nc2cccc(C(=O)NCCCO)c2)cc1 | > 100 µM | > 100 µM | > 100 | > 100 µM | > 100 µM | > 100 µM | > 100 µM | > 100 | > 100 µM | > 100 µM | > 100 µM | > 100 µM | > 100 | – | – | – | – | – | –
CN(C)CC1CCC/C(=C\c2ccccc2)C1=O (stereo not given) | 23.1 µM | 5.27 µM | 4.67 | 3.46 µM | 3.54 µM | 8.93 µM | 22.8 µM | 2.95 | 7.38 µM | 35.2 µM | 18.5 µM | 26.7 µM | 5.08 | – | – | – | – | – | –
O=C(Nc1cccc(C(=O)NCCCO)c1)/C(=C/c1ccccc1)NC(=O)c1ccccc1 | > 100 µM | > 100 µM | > 100 | > 100 µM | > 100 µM | > 100 µM | > 100 µM | > 100 | > 100 µM | > 100 µM | > 100 µM | > 100 µM | > 100 | – | – | – | – | – | –
Cc1ccsc1C(=S)Nc1ccc(Cl)c(/C=N/OC(C)C)c1 | > 100 µM | 47.3 µM | > 100 | 98.9 µM | > 100 µM | > 100 µM | > 100 µM | > 100 | 69.4 µM | > 100 µM | > 100 µM | > 100 µM | > 100 | – | – | – | – | – | –
CNC(=O)C(CC(C)C)NC(=O)C(C)NC(=O)C(Cc1ccc(OCc2ccccc2)cc1)NC(=O)C(COCc1ccccc1)NC(=O)OC(C)(C)C (stereo not given) (Boc-S(Bn)Y(Bn)AL-NHMe; configuration not given here) | 55.5 µM and 40.4 µM | 38.3 µM and 9.52 µM | > 100 | > 100 µM and 18.1 µM | > 55.9 µM and 27.9 µM | 30 µM and 30.9 µM | > 71.1 µM and 43.3 µM | 37.4 | > 100 µM and 24.3 µM | > 61 µM and 41.2 µM | > 86.4 µM and 42.1 µM | > 31.6 µM and 22.9 µM | > 100 | 17.3 µM and 2.11 µM | 20.7 µM and 10.1 µM | 47.6 µM and 7.04 µM | > 43.9 µM and 21 µM | > 52.3 µM and 18.8 µM | 18.9 µM and 9 µM
CCNc1nnc(-c2ccccc2Nc2ccccc2-c2nnc(NCC)s2)s1 | > 79.7 µM | > 53.9 µM | > 45.2 | 58.4 µM | 71.4 µM | 35 µM | 73.3 µM | 26.9 | 85.8 µM | 40.5 µM | > 49.7 µM | > 87.9 µM | 21.3 | – | – | – | – | – | –
Cc1cn(C2CCN(CC3COC(C)(C)O3)O2)c(=O)[nH]c1=O (stereo not given) | > 100 µM | > 100 µM | > 100 | > 100 µM | > 100 µM | > 100 µM | > 100 µM | > 100 | > 100 µM | > 100 µM | > 100 µM | > 100 µM | > 100 | – | – | – | – | – | –
O=[N+]([O-])/C(Cl)=C/C(=C1/Nc2ccccc2O1)[N+](=O)[O-] | 52 µM | 45.1 µM | 42 | 29.8 µM | 32 µM | 46 µM | 54.4 µM | 27 | 38.6 µM | 73.7 µM | > 100 µM | 35.5 µM | 35.8 | – | – | – | – | – | –
CC(C)Cn1cnc2c(Cl)nc3ccccc3c21 | > 100 µM | > 100 µM | > 100 | > 100 µM | > 100 µM | > 100 µM | > 100 µM | > 100 | > 100 µM | > 100 µM | > 100 µM | 88 µM | > 100 | – | – | – | – | – | –
C/C=C\C(CC(=O)OC)CC(=O)N(CCC1CN(S(=O)(=O)C(F)(F)F)c2ccccc21)Cc1ccc(OC)cc1OC (stereo not given) | > 100 µM | > 100 µM | > 100 | > 100 µM | > 100 µM | > 100 µM | > 100 µM | > 100 | > 100 µM | > 100 µM | > 100 µM | > 100 µM | > 100 | – | – | – | – | – | –
Cc1cc2c(cc1Cl)SC(NNC1=NCCN1)=NS2(=O)=O | > 10 µM | > 10 µM | > 10 | > 10 µM | > 10 µM | > 10 µM | > 10 µM | > 10 | > 10 µM | > 10 µM | > 10 µM | > 10 µM | > 10 | – | – | – | – | – | –
O=C1C=C(c2ccccc2)O/C1=C\C(=O)c1ccc(Cl)cc1 | 25.3 µM | 30.8 µM | 35.1 | 29.4 µM | 29.8 µM | 38.7 µM | 65.8 µM | 44.2 | 32.6 µM | – | 11.5 µM | 18.2 µM | 35.8 | – | – | – | – | – | –
C(#CC1(Nc2ccccc2)CCN(Cc2ccccc2)CC1)C1(Nc2ccccc2)CCN(Cc2ccccc2)CC1 | > 100 µM | 3.5 µM | > 46.4 | > 65.6 µM | > 100 µM | > 56.2 µM | > 56.2 µM | > 56.2 | 25.7 µM | > 56.2 µM | > 56.2 µM | 29.7 µM | > 84.7 | – | – | – | – | – | –
CC(=O)Nc1cc2nc3n(c2cc1C)CCC3OC(C)=O (stereo not given) | > 100 µM | > 100 µM | > 100 | > 100 µM | > 100 µM | > 100 µM | > 100 µM | > 100 | > 100 µM | > 100 µM | > 100 µM | > 100 µM | > 100 | – | – | – | – | – | –
CC1(C)CCCCCCCCCC2CC2CCC(C)(C)C1=O (stereo not given) | 87.4 µM | 32.7 µM | 30.1 | 49 µM | 55.5 µM | > 100 µM | > 100 µM | 30 | 29.3 µM | 33.9 µM | 35.7 µM | 71.1 µM | 36.9 | – | – | – | – | – | –
O=S(=O)(CCC[C@H]1[C@@H](CCOCc2ccccc2)C2CCCN1O2)c1ccccc1 (stereo not given in full) | > 100 µM | > 100 µM | > 100 | > 100 µM | > 100 µM | > 100 µM | > 100 µM | > 100 | > 100 µM | > 100 µM | > 100 µM | > 100 µM | > 100 | – | – | – | – | – | –
CN1CCN(Cc2nc3c(s2)CCc2sccc2-3)CC1 | > 100 µM | > 100 µM | > 100 | > 100 µM | > 100 µM | > 100 µM | > 100 µM | > 100 | > 100 µM | > 100 µM | > 100 µM | > 100 µM | > 100 | – | – | – | – | – | –
O=c1[nH]nc(Cc2ccccc2)n1/N=C/c1ccc([N+](=O)[O-])cc1 | > 100 µM | > 100 µM | > 100 | > 100 µM | > 100 µM | > 100 µM | > 100 µM | > 100 | > 100 µM | > 100 µM | > 100 µM | > 100 µM | > 100 | – | – | – | – | – | –
C=C(Cl)C(C)(Cl)CCC(Cl)C(C)C (stereo not given) | > 100 µM | > 100 µM | – | > 100 µM | > 100 µM | > 100 µM | > 100 µM | > 100 | > 100 µM | > 100 µM | > 100 µM | > 100 µM | > 100 | – | – | – | – | – | –
CC(=O)NC1COC(COC(=O)CCCCCCCCCCNC(=O)c2ccc([N+](=O)[O-])c3c(=O)c4ccccc4[nH]c23)C(O)C1OC(C)C(=O)NC(C(=O)NC(CCC(N)=O)C(=O)OCc1ccccc1)C(C)C (stereo not given) | > 83.1 µM | 41.2 µM | 50.2 | > 83.8 µM | > 100 µM | 75 µM | 27.3 µM | 35.4 | 23.2 µM | 42.7 µM | > 92.6 µM | 55.6 µM | 19.1 | – | – | – | – | – | –
Cc1cccc(C)c1N=Nc1ccc(O)c(CN(C)C)c1 | > 100 µM | 44.8 µM | > 100 | 76.2 µM | > 100 µM | > 100 µM | > 100 µM | > 100 | 46 µM | > 100 µM | > 100 µM | > 100 µM | > 100 | – | – | – | – | – | –
O=C1/C(=C/c2ccc(O)c(O)c2)CC/C1=C\c1ccc(O)c(O)c1 | 28.9 µM | > 86.8 µM | > 100 | > 100 µM | > 100 µM | > 100 µM | 11.3 µM | 5.42 | 19.3 µM | > 100 µM | > 79.5 µM | > 80.1 µM | 7.31 | – | – | – | – | – | –
